This note sets out measurements from PubChem BioAssay (NCI).

The structures appear in SMILES notation.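 1) Cells in 96-well plates. 2) Compound, 48 h, 5 concentrations. 3) Linear interpolation between surrounding doses. 4) Unreached endpoint = highest concentration. Here, GI50 denotes the concentration required for 50% inhibition of growth. Definition used: TGI = concentration required for complete inhibition of growth.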

For one assay, the system named is SK-OV-3 ovarian. Put plainly: NCI tumour cell line growth inhibition, 48 h.
Consider `Nc1nc(Nc2ccccc2)sc1C(=O)c1ccco1`, for which the TGI was determined as 93.6 µM.

On to `C[C@H]1OC(=O)[C@@H]2N=NN(Cc3ccccc3)[C@H]12`, for which the TGI was above 100 µM.

In turn, `C/C(=N\Nc1nc2ccccc2s1)c1ccc2ccccc2n1` had a TGI above 100 µM.

`CN1N=C(c2ccncc2)OC1c1ccccc1F` (stereo unspecified): the TGI was above 100 µM.

On to `Cc1c(-c2ccccc2)[nH]n(C2=NCCN2)c1=O`, for which the TGI was above 100 µM.

Compound `O=[N+]([O-])/C(Cl)=C(\NCCN/C(C(Cl)=C(Cl)Cl)=C(/Cl)[N+](=O)[O-])C(Cl)=C(Cl)Cl` registered a TGI above 100 µM.

For the compound `Cc1ccc(NC(=O)/C(Cc2nc3ccc([N+](=O)[O-])cc3[nH]c2=O)=N\NC(=O)C[n+]2ccccc2)c(C)c1`, the TGI was found to be 56.5 µM.

`C[n+]1c(/C=C/c2ccc(O)c3ncccc23)[se]c2ccccc21` gave a TGI of 23.4 µM.

Regarding `COc1ccc(NC(C)c2ccncc2)cc1` (stereo unspecified), the TGI was 65 µM.

`O=C1C=CC(=O)C(CNc2ccc(C(=O)OCc3ccccc3)cc2)=C1`: the TGI stood at 30.8 µM.

With `CC1=NNC(=O)C1C1CC(c2c[nH]c3ccccc23)=NN=C1Cl` (stereo unspecified), the TGI is above 100 µM.

Take `C/C(=C\CO)CC/C=C(\C)CNc1ccc([N+](=O)[O-])cc1`: the TGI is above 100 µM.

`CC(=O)Oc1c(C)c(C)c2c(c1C)CCC(C)(CC(=O)OCCCCCCCCCCC[P+](c1ccccc1)(c1ccccc1)c1ccccc1)O2` (stereo unspecified): the GI50 is 0.264 µM and the TGI is 0.932 µM.

With `CCN(CCCl)c1cc(CN(C)C)cc(NC(=O)c2ccc(C(=O)Nc3cccc(CN(C)C)c3)cc2)c1`, the TGI is above 100 µM.

Consider `c1ccc(C2CC(=NC3CCCCC3)Nc3ccccc3N2)cc1` (stereo unspecified), for which the TGI is above 100 µM.

The next assay deals with OVCAR-3 ovarian. Put plainly: NCI tumour cell line growth inhibition, 48 h.
`COc1ccc(N2C(=O)C3c4[nH]c5ccccc5c4C4CCCCCCCCCC4C3C2=O)cc1` (stereo unspecified) returned a TGI above 10 µM.

The compound `O=C(CC(C(=O)c1ccco1)c1ccco1)c1ccco1` (stereo unspecified) returned a TGI above 100 µM.

In the case of `CC(C)C(N)C(=O)NC(CCC(=O)NCCCCC(N)C(=O)NCCCNc1ccc([N+](=O)[O-])c2[nH]c3ccccc3c(=O)c12)C(N)=O` (stereo unspecified), the TGI is above 100 µM.

In the case of `Cc1cccc(/C(Br)=C2/OC(=O)c3ccccc32)c1`, the TGI was above 100 µM.

`CC1(C)OC2COC3([C@@H]4OC(C)(C)O[C@@H]4CO)OC(C)(C)OC3C2O1` (stereo partly specified) displayed a TGI above 100 µM.

For `COP(=O)(OC)C(Nc1ccc(Cc2ccc(NC(c3ccco3)P(=O)(OC)OC)cc2)cc1)c1ccco1` (stereo unspecified), the TGI was above 100 µM.

In turn, `O=C1C(C(O)(C(F)(F)F)C(F)(F)F)CCC1C(O)(C(F)(F)F)C(F)(F)F` (stereo unspecified) showed a TGI above 100 µM.

Turning to `Nc1nc(Nc2ccccc2)sc1C(=O)c1ccco1`, the TGI is 31.5 µM.

Take `C[C@H]1OC(=O)[C@@H]2N=NN(Cc3ccccc3)[C@H]12`: the TGI is above 100 µM.

For the compound `C/C(=N\Nc1nc2ccccc2s1)c1ccc2ccccc2n1`, the TGI was above 100 µM.

Compound `CN1N=C(c2ccncc2)OC1c1ccccc1F` (stereo unspecified) displayed a TGI above 100 µM.

On to `Cc1c(-c2ccccc2)[nH]n(C2=NCCN2)c1=O`, for which the TGI is above 100 µM.

With `O=[N+]([O-])/C(Cl)=C(\NCCN/C(C(Cl)=C(Cl)Cl)=C(/Cl)[N+](=O)[O-])C(Cl)=C(Cl)Cl`, the TGI is above 100 µM.

`Cc1ccc(NC(=O)/C(Cc2nc3ccc([N+](=O)[O-])cc3[nH]c2=O)=N\NC(=O)C[n+]2ccccc2)c(C)c1` showed a TGI of 59.3 µM.

With `CC1(C)N=C2C(=O)c3c([nH]c4ccccc34)[C@]3(C)CCC1CC23` (stereo partly specified), the TGI was above 6.25 µM.

With `C[n+]1c(/C=C/c2ccc(O)c3ncccc23)[se]c2ccccc21`, the TGI came out at 4.5 µM.

Turning to `COc1ccc(NC(C)c2ccncc2)cc1` (stereo unspecified), the TGI was above 100 µM.

Regarding `O=C1C=CC(=O)C(CNc2ccc(C(=O)OCc3ccccc3)cc2)=C1`, the TGI amounted to 7.23 µM.

`CC1=NNC(=O)C1C1CC(c2c[nH]c3ccccc23)=NN=C1Cl` (stereo unspecified) returned a TGI above 100 µM.

On to `C/C(=C\CO)CC/C=C(\C)CNc1ccc([N+](=O)[O-])cc1`, for which the TGI was determined as 48.2 µM.

`c1ccc(C2CC(=NC3CCCCC3)Nc3ccccc3N2)cc1` (stereo unspecified) returned a TGI above 100 µM.

For another assay, the system named is NCI-H23 lung. Put plainly: NCI tumour cell line growth inhibition, 48 h.
With `COc1ccc(N2C(=O)C3c4[nH]c5ccccc5c4C4CCCCCCCCCC4C3C2=O)cc1` (stereo unspecified), the TGI is above 10 µM.

`O=C(CC(C(=O)c1ccco1)c1ccco1)c1ccco1` (stereo unspecified) had a TGI above 100 µM.

`CC(C)C(N)C(=O)NC(CCC(=O)NCCCCC(N)C(=O)NCCCNc1ccc([N+](=O)[O-])c2[nH]c3ccccc3c(=O)c12)C(N)=O` (stereo unspecified) came in with a TGI above 100 µM.

Compound `Cc1cccc(/C(Br)=C2/OC(=O)c3ccccc32)c1` yielded a TGI above 100 µM.

For `CC1(C)OC2COC3([C@@H]4OC(C)(C)O[C@@H]4CO)OC(C)(C)OC3C2O1` (stereo partly specified), the TGI is above 100 µM.

`COP(=O)(OC)C(Nc1ccc(Cc2ccc(NC(c3ccco3)P(=O)(OC)OC)cc2)cc1)c1ccco1` (stereo unspecified): the TGI is 44.5 µM.

In turn, `O=C1C(C(O)(C(F)(F)F)C(F)(F)F)CCC1C(O)(C(F)(F)F)C(F)(F)F` (stereo unspecified) displayed a TGI of 6.75 µM.

On to `Nc1nc(Nc2ccccc2)sc1C(=O)c1ccco1`, for which the TGI was 35.9 µM.

On to `C[C@H]1OC(=O)[C@@H]2N=NN(Cc3ccccc3)[C@H]12`, for which the TGI is above 100 µM.

The compound `C/C(=N\Nc1nc2ccccc2s1)c1ccc2ccccc2n1` registered a TGI above 100 µM.

`CN1N=C(c2ccncc2)OC1c1ccccc1F` (stereo unspecified) displayed a TGI above 100 µM.

As for `Cc1c(-c2ccccc2)[nH]n(C2=NCCN2)c1=O`, the TGI is above 100 µM.

`O=[N+]([O-])/C(Cl)=C(\NCCN/C(C(Cl)=C(Cl)Cl)=C(/Cl)[N+](=O)[O-])C(Cl)=C(Cl)Cl` gave a TGI above 100 µM.

Compound `Cc1ccc(NC(=O)/C(Cc2nc3ccc([N+](=O)[O-])cc3[nH]c2=O)=N\NC(=O)C[n+]2ccccc2)c(C)c1` yielded a TGI above 100 µM.

On to `CC1(C)N=C2C(=O)c3c([nH]c4ccccc34)[C@]3(C)CCC1CC23` (stereo partly specified), for which the TGI was above 6.25 µM.

As to `C[n+]1c(/C=C/c2ccc(O)c3ncccc23)[se]c2ccccc21`, the TGI came to 37.6 µM.

In turn, `COc1ccc(NC(C)c2ccncc2)cc1` (stereo unspecified) displayed a TGI above 100 µM.

Regarding `O=C1C=CC(=O)C(CNc2ccc(C(=O)OCc3ccccc3)cc2)=C1`, the TGI came to 30.1 µM.

For the compound `CC1=NNC(=O)C1C1CC(c2c[nH]c3ccccc23)=NN=C1Cl` (stereo unspecified), the TGI was above 100 µM.

In turn, `C/C(=C\CO)CC/C=C(\C)CNc1ccc([N+](=O)[O-])cc1` returned a TGI of 57.7 µM.

Compound `CCN(CCCl)c1cc(CN(C)C)cc(NC(=O)c2ccc(C(=O)Nc3cccc(CN(C)C)c3)cc2)c1` came in with a TGI of 11.2 µM.

`c1ccc(C2CC(=NC3CCCCC3)Nc3ccccc3N2)cc1` (stereo unspecified) came in with a TGI above 100 µM.

Another assay relates to HCC-2998 colon. Kind of assay: NCI tumour cell line growth inhibition, 48 h.
As to `COc1ccc(N2C(=O)C3c4[nH]c5ccccc5c4C4CCCCCCCCCC4C3C2=O)cc1` (stereo unspecified), the TGI is above 10 µM.

Take `O=C(CC(C(=O)c1ccco1)c1ccco1)c1ccco1` (stereo unspecified): the TGI was above 100 µM.

Regarding `CC(C)C(N)C(=O)NC(CCC(=O)NCCCCC(N)C(=O)NCCCNc1ccc([N+](=O)[O-])c2[nH]c3ccccc3c(=O)c12)C(N)=O` (stereo unspecified), the TGI is above 100 µM.

`Cc1cccc(/C(Br)=C2/OC(=O)c3ccccc32)c1` had a TGI above 100 µM.

`CC1(C)OC2COC3([C@@H]4OC(C)(C)O[C@@H]4CO)OC(C)(C)OC3C2O1` (stereo partly specified) returned a TGI above 100 µM.

For `C[C@H]1OC(=O)[C@@H]2N=NN(Cc3ccccc3)[C@H]12`, the TGI was above 100 µM.

For the compound `CN1N=C(c2ccncc2)OC1c1ccccc1F` (stereo unspecified), the TGI is above 100 µM.

`O=[N+]([O-])/C(Cl)=C(\NCCN/C(C(Cl)=C(Cl)Cl)=C(/Cl)[N+](=O)[O-])C(Cl)=C(Cl)Cl`: the TGI is above 100 µM.

Turning to `Cc1ccc(NC(=O)/C(Cc2nc3ccc([N+](=O)[O-])cc3[nH]c2=O)=N\NC(=O)C[n+]2ccccc2)c(C)c1`, the TGI is above 100 µM.

In turn, `CC1(C)N=C2C(=O)c3c([nH]c4ccccc34)[C@]3(C)CCC1CC23` (stereo partly specified) returned a TGI above 6.25 µM.

In the case of `COc1ccc(NC(C)c2ccncc2)cc1` (stereo unspecified), the TGI was above 100 µM.

Consider `O=C1C=CC(=O)C(CNc2ccc(C(=O)OCc3ccccc3)cc2)=C1`, for which the TGI was 31.6 µM.

Compound `CCN(CCCl)c1cc(CN(C)C)cc(NC(=O)c2ccc(C(=O)Nc3cccc(CN(C)C)c3)cc2)c1` came in with a TGI of 3.05 µM.

The next assay has as its system MCF7 breast. Put plainly: NCI tumour cell line growth inhibition, 48 h.
With `COc1ccc(N2C(=O)C3c4[nH]c5ccccc5c4C4CCCCCCCCCC4C3C2=O)cc1` (stereo unspecified), the TGI is above 10 µM.

As to `O=C(CC(C(=O)c1ccco1)c1ccco1)c1ccco1` (stereo unspecified), the TGI is above 100 µM.

On to `Cc1cccc(/C(Br)=C2/OC(=O)c3ccccc32)c1`, for which the TGI was above 100 µM.

Regarding `CC1(C)OC2COC3([C@@H]4OC(C)(C)O[C@@H]4CO)OC(C)(C)OC3C2O1` (stereo partly specified), the TGI was above 100 µM.

On to `COP(=O)(OC)C(Nc1ccc(Cc2ccc(NC(c3ccco3)P(=O)(OC)OC)cc2)cc1)c1ccco1` (stereo unspecified), for which the TGI was above 100 µM.

`O=C1C(C(O)(C(F)(F)F)C(F)(F)F)CCC1C(O)(C(F)(F)F)C(F)(F)F` (stereo unspecified) gave a TGI of 2.26 µM.

The compound `COc1cc(/C=C2\CCC(C)/C(=C\c3cc(OC)c(OC)c(OC)c3)C2=O)cc(OC)c1OC` (stereo unspecified) gave a TGI above 100 µM.

With `Nc1nc(Nc2ccccc2)sc1C(=O)c1ccco1`, the TGI stood at 26.3 µM.

Regarding `C[C@H]1OC(=O)[C@@H]2N=NN(Cc3ccccc3)[C@H]12`, the TGI was above 100 µM.

`C/C(=N\Nc1nc2ccccc2s1)c1ccc2ccccc2n1`: the TGI is above 100 µM.

Regarding `Cc1c(-c2ccccc2)[nH]n(C2=NCCN2)c1=O`, the TGI was above 100 µM.

In turn, `O=[N+]([O-])/C(Cl)=C(\NCCN/C(C(Cl)=C(Cl)Cl)=C(/Cl)[N+](=O)[O-])C(Cl)=C(Cl)Cl` yielded a TGI above 100 µM.

Compound `Cc1ccc(NC(=O)/C(Cc2nc3ccc([N+](=O)[O-])cc3[nH]c2=O)=N\NC(=O)C[n+]2ccccc2)c(C)c1` had a TGI above 100 µM.

The compound `CC1(C)N=C2C(=O)c3c([nH]c4ccccc34)[C@]3(C)CCC1CC23` (stereo partly specified) gave a TGI above 6.25 µM.

For `C[n+]1c(/C=C/c2ccc(O)c3ncccc23)[se]c2ccccc21`, the TGI is 14.8 µM.

Compound `COc1ccc(NC(C)c2ccncc2)cc1` (stereo unspecified) returned a TGI above 100 µM.

With `O=C1C=CC(=O)C(CNc2ccc(C(=O)OCc3ccccc3)cc2)=C1`, the TGI is 18.5 µM.

On to `C/C(=C\CO)CC/C=C(\C)CNc1ccc([N+](=O)[O-])cc1`, for which the TGI is above 100 µM.

Compound `CCN(CCCl)c1cc(CN(C)C)cc(NC(=O)c2ccc(C(=O)Nc3cccc(CN(C)C)c3)cc2)c1` yielded a TGI of 1 µM.
